Source: BigSolDB 2.1

O=C(/C=C/c1cn(-c2ccccc2)nc1-c1cccc([N+](=O)[O-])c1)c1nc2ccccc2[nH]1
solubility (mole fraction)
Conditions	in acetonitrile	in ethanol	in ethyl acetate	in methanol	in n-butanol	in n-pentanol	in n-propanol
298.15 K	0.000103	5.53e-05	0.0013	4.04e-05	0.000202	0.000281	0.000115
303.15 K	0.000123	6.2e-05	0.00149	4.85e-05	0.000236	0.000326	0.000135
308.15 K	0.000148	7.01e-05	0.0017	5.5e-05	0.000279	0.000368	0.000164
313.15 K	0.000163	8.42e-05	0.00194	5.9e-05	0.000324	0.000424	0.000175
318.15 K	0.00019	9.46e-05	0.00217	6.59e-05	0.000359	0.000455	0.000206
323.15 K	0.000216	0.000103	0.00244	7.4e-05	0.000402	0.000513	0.000226
328.15 K	0.000232	0.000119	0.00277	8.21e-05	0.000445	0.000557	0.000251

O=C(/C=C/c1cn(-c2ccccc2)nc1-c1ccccc1Cl)c1nc2ccccc2[nH]1
solubility (mole fraction)
Conditions	in acetonitrile	in ethanol	in ethyl acetate	in methanol	in n-butanol	in n-pentanol	in n-propanol
298.15 K	1.78e-05	0.000105	0.00077	9.04e-05	0.000294	0.000354	0.000157
303.15 K	6e-05	0.000125	0.00095	0.000116	0.00033	0.0004	0.000167
308.15 K	0.000101	0.000145	0.00107	0.000133	0.000354	0.000448	0.000177
313.15 K	0.00014	0.000157	0.0012	0.000149	0.0004	0.00051	0.000189
318.15 K	0.000187	0.000179	0.00135	0.000168	0.000445	0.0006	0.000205
323.15 K	0.00021	0.000195	0.00145	0.000187	0.0005	0.00069	0.00022
328.15 K	0.000241	0.000217	0.00157	0.000209	0.000533	0.00074	0.000244

COc1cccc(-c2nn(-c3ccccc3)cc2/C=C/C(=O)c2nc3ccccc3[nH]2)c1
solubility (mole fraction)
Conditions	in acetonitrile	in ethanol	in ethyl acetate	in methanol	in n-butanol	in n-pentanol	in n-propanol
298.15 K	2.91e-05	7.24e-05	0.000241	2.71e-05	0.00017	0.000227	0.000126
303.15 K	4.16e-05	8.5e-05	0.000256	3.15e-05	0.000185	0.000274	0.000145
308.15 K	5.87e-05	0.000106	0.000274	3.63e-05	0.000211	0.000312	0.000166
313.15 K	7.62e-05	0.000121	0.000292	4.12e-05	0.00023	0.000381	0.000187
318.15 K	9.21e-05	0.000136	0.000317	4.62e-05	0.000258	0.000427	0.000206
323.15 K	0.000111	0.000148	0.000336	5.15e-05	0.000285	0.000457	0.000231
328.15 K	0.000122	0.000165	0.000365	5.81e-05	0.000311	0.000499	0.000245

O=C(/C=C/c1cn(-c2ccccc2)nc1-c1ccccc1)c1nc2ccccc2[nH]1
solubility (mole fraction)
Conditions	in acetonitrile	in ethanol	in ethyl acetate	in methanol	in n-butanol	in n-pentanol	in n-propanol
298.15 K	5.71e-05	8.48e-05	0.000159	5.54e-05	0.000248	0.000257	0.000135
303.15 K	6.5e-05	9.4e-05	0.000195	6.53e-05	0.000275	0.000332	0.000152
308.15 K	7.61e-05	0.000106	0.000243	8.08e-05	0.000299	0.000406	0.000179
313.15 K	9.3e-05	0.000123	0.000312	8.83e-05	0.000335	0.000475	0.000189
318.15 K	0.000102	0.000135	0.000362	9.87e-05	0.000374	0.000535	0.000215
323.15 K	0.00012	0.000146	0.000403	0.000115	0.000425	0.000592	0.000226
328.15 K	0.000132	0.00016	0.000463	0.000123	0.000465	0.000639	0.000255
